Assay results as given in ChEMBL document CHEMBL5385972, “New azole derivatives linked to indole/indoline moieties combined with FLC against drug-resistant Candida albicans” (2024).
In brackets after ≈: the same amount, converted by molar mass. Activity calls are given as the source filed them. No cut-off for these calls is given here.

Assays:
Candida albicans [1] = assay: Synergistic antifungal activity against Candida albicans SC5314 assessed as fractional inhibitory concentration index incubated for 24 hrs in presence of fluconazole by microdilution assay; format: functional
Candida albicans [2] = assay: Antifungal activity against Candida albicans SC5314 assessed as inhibition of fungal growth incubated for 24 hrs by microdilution assay; format: functional
Candida albicans [3] = assay: Synergistic antifungal activity against Candida albicans SC5314 assessed as inhibition of fungal growth incubated for 24 hrs in presence of fluconazole by microdilution assay; format: functional
Candida albicans [4] = assay: Synergistic antifungal activity against FLC-resistant Candida albicans SC5314 assessed as inhibition of fungal growth incubated for 24 hrs in presence of fluconazole by microdilution assay; format: functional
Candida albicans [5] = assay: Synergistic antifungal activity against FLC-resistant Candida albicans SC5314 assessed as fractional inhibitory concentration index incubated for 24 hrs in presence of fluconazole by microdilution assay; format: functional
Candida albicans [6] = assay: Antifungal activity against FLC-resistant Candida albicans SC5314 assessed as inhibition of fungal growth incubated for 24 hrs by microdilution assay; format: functional
Candida albicans [7] = assay: Inhibition of mitochondrial function in Candida albicans SC5314 assessed as reduction in ATP production at 3 ug/ml incubated for 16 hrs by chemiluminescence assay; format: functional; details: dose 3.0 µg/ml
Candida albicans [8] = assay: Antifungal activity against FLC-resistant Candida albicans SC5314 assessed as inhibition of fungal growth at 3 ug/ml incubated for 48 hrs by time-kill assay; format: functional, organism-based; details: dose 3.0 µg/ml
Candida albicans [9] = assay: Antifungal activity against Candida albicans SC5314 assessed as morphological change at 3 ug/ml incubated for 24 hrs by transmission electron microscopic analysis; format: functional, organism-based; details: dose 3.0 µg/ml
Cell membrane [10] = assay: Induction of […] membrane permeabilization in Candida albicans SC5314 by measuring red fluorescence at 3 ug/ml incubated for 16 to 24 hrs by propyl iodide dye based fluorescence microscopic analysis; format: subcellular; details: dose 3.0 µg/ml, time 16-24 hrs
Candida albicans [11] = assay: Antifungal activity against Candida albicans SC5314 assessed as morphological change at 3 to 9 ug/ml incubated for 24 hrs by transmission electron microscopic analysis; format: functional, organism-based; details: dose 3-9 µg/ml
Candida albicans [12] = assay: Synergistic antifungal activity against FLC-resistant Candida albicans SC5314 assessed as inhibition of fungal growth incubated for 48 hrs in presence of fluconazole by time-kill assay; format: functional, organism-based
Candida albicans [13] = assay: Synergistic antifungal activity against Candida albicans SC5314 assessed as appearance of incomplete cell wall structure incubated for 24 hrs in presence of fluconazole by transmission electron microscopic analysis; format: functional, organism-based
Cell membrane [14] = assay: Induction of […] membrane permeabilization in Candida albicans SC5314 by measuring red fluorescence incubated for 16 to 24 hrs in presence of fluconazole by propyl iodide dye based multifunctional microplate reader analysis; format: subcellular; details: time 16-24 hrs
Cell membrane [15] = assay: Induction of […] membrane permeabilization in Candida albicans SC5314 by measuring red fluorescence incubated for 16 to 24 hrs in presence of fluconazole by propyl iodide dye based fluorescence microscopic analysis; format: subcellular; details: time 16-24 hrs
Candida albicans [16] = assay: Synergistic antifungal activity against Candida albicans SC5314 assessed as decrease in intracellular mitochondrial membrane potential incubated for 16 hrs in presence of fluconazole by JC-1 staining based fluorescence assay; format: functional, organism-based
Candida albicans [17] = assay: Antifungal activity against Candida albicans SC5314 assessed as decrease in mycelial growth at 3 to 9 ug/ml incubated for 24 hrs by crystal violet staining based inverted microscopic analysis; format: functional, organism-based; details: dose 3-9 µg/ml
Candida albicans [18] = assay: Synergistic antifungal activity against Candida albicans SC5314 assessed as leakage of intracellular debris incubated for 24 hrs in presence of fluconazole by transmission electron microscopic analysis; format: functional, organism-based
Candida albicans [19] = assay: Inhibition of mitochondrial function in Candida albicans SC5314 assessed as reduction in ATP production at 3 to 9 ug/ml incubated for 16 hrs by chemiluminescence assay; format: functional; details: dose 3-9 µg/ml
Candida albicans [20] = assay: Synergistic antifungal activity against Candida albicans SC5314 assessed as increase in intracellular ROS production incubated for 16 hrs in presence of fluconazole by DCFH-DA staining based ELISA; format: functional, organism-based
Candida albicans [21] = assay: Synergistic antifungal activity against Candida albicans SC5314 assessed as reduction in ATP production incubated for 16 hrs in presence of fluconazole by chemiluminescence assay; format: functional, organism-based
Cell membrane [22] = assay: Induction of […] membrane permeabilization in Candida albicans SC5314 by measuring red fluorescence at 3 to 9 ug/ml incubated for 16 to 24 hrs by propyl iodide dye based fluorescence microscopic analysis; format: subcellular; details: dose 3-9 µg/ml, time 16-24 hrs
Candida albicans [23] = assay: Antifungal activity against FLC-resistant Candida albicans SC5314 assessed as inhibition of fungal growth at 3 to 9 ug/ml incubated for 48 hrs by time-kill assay; format: functional, organism-based; details: dose 3-9 µg/ml
Candida albicans [24] = assay: Antifungal activity against Candida albicans SC5314 assessed as inhibition of fungal growth at 3 to 9 ug/ml incubated for 24 hrs by crystal violet staining based inverted microscopic analysis; format: functional, organism-based; details: dose 3-9 µg/ml

SMILES: O=C(CCn1ccc2ccc(Cl)cc21)NCCNCC(O)COC(Cn1cncn1)c1ccc(F)cc1F (stereo not given)
- fractional inhibitory concentration index (FICI) (Candida albicans [1]): 0.66
- MIC50 (Candida albicans [2]): > 200 µg/mL
- MIC50 (Candida albicans [3]): 0.89 µg/mL
- MIC50 (Candida albicans [4]): 20 µg/mL
- fractional inhibitory concentration index (FICI) (Candida albicans [5]): 0.1

SMILES: COc1ccc2c(c1)N(CCC(=O)NCCNCC(O)COC(Cn1cncn1)c1ccc(F)cc1F)CC2 (stereo not given)
- fractional inhibitory concentration index (FICI) (Candida albicans [1]): 8.64
- MIC50 (Candida albicans [2]): > 200 µg/mL
- MIC50 (Candida albicans [3]): 11.6 µg/mL
- MIC50 (Candida albicans [4]): 111 µg/mL
- fractional inhibitory concentration index (FICI) (Candida albicans [5]): 0.56

SMILES: O=C(CCN1CCc2ccccc21)NCCNCC(O)COC(Cn1cncn1)c1ccc(F)cc1F (stereo not given)
- fractional inhibitory concentration index (FICI) (Candida albicans [1]): 4.34
- MIC50 (Candida albicans [2]): > 200 µg/mL
- MIC50 (Candida albicans [3]): 5.84 µg/mL
- MIC50 (Candida albicans [4]): 42.6 µg/mL
- fractional inhibitory concentration index (FICI) (Candida albicans [5]): 0.21

SMILES: Cc1ccc2c(c1)CCN2CCC(=O)NCCNCC(O)COC(Cn1cncn1)c1ccc(F)cc1F (stereo not given)
- fractional inhibitory concentration index (FICI) (Candida albicans [1]): 1.51
- MIC50 (Candida albicans [2]): > 200 µg/mL
- MIC50 (Candida albicans [3]): 2.03 µg/mL
- MIC50 (Candida albicans [4]): 10.2 µg/mL
- fractional inhibitory concentration index (FICI) (Candida albicans [5]): 0.05

SMILES: O=C(CCN1CCc2ccc(F)cc21)NCCNCC(O)COC(Cn1cncn1)c1ccc(F)cc1F (stereo not given)
- fractional inhibitory concentration index (FICI) (Candida albicans [1]): 1.99
- MIC50 (Candida albicans [2]): > 200 µg/mL
- MIC50 (Candida albicans [3]): 2.68 µg/mL
- MIC50 (Candida albicans [4]): 18.9 µg/mL
- fractional inhibitory concentration index (FICI) (Candida albicans [5]): 0.09

SMILES: OC(Cn1cncn1)(Cn1cncn1)c1ccc(F)cc1F [FLUCONAZOLE]
- MIC50 (Candida albicans [6]): > 200 µg/mL
- MIC50 (Candida albicans [2]): 1.35 µg/mL (≈ 4.41 µM)
- Activity (Candida albicans [7]): inactive
- Activity (Candida albicans [8]): Active
- Activity (Candida albicans [9]): Active
- Activity (Cell membrane [10]): Active

SMILES: O=C(CCN1CCc2ccc(Cl)cc21)NCCNCC(O)COC(Cn1cncn1)c1ccc(F)cc1F (stereo not given)
- fractional inhibitory concentration index (FICI) (Candida albicans [1]): 0.26
- MIC50 (Candida albicans [2]): > 200 µg/mL
- MIC50 (Candida albicans [3]): 0.35 µg/mL
- MIC50 (Candida albicans [4]): 9.22 µg/mL
- fractional inhibitory concentration index (FICI) (Candida albicans [5]): 0.05

SMILES: O=C(CCn1ccc2cc(Cl)ccc21)NCCNCC(O)COC(Cn1cncn1)c1ccc(F)cc1F (stereo not given)
- fractional inhibitory concentration index (FICI) (Candida albicans [1]): 0.62
- MIC50 (Candida albicans [2]): > 200 µg/mL
- MIC50 (Candida albicans [3]): 0.83 µg/mL
- MIC50 (Candida albicans [4]): 18.9 µg/mL
- fractional inhibitory concentration index (FICI) (Candida albicans [5]): 0.09

SMILES: O=C(CCn1ccc2ccc(F)cc21)NCCNCC(O)COC(Cn1cncn1)c1ccc(F)cc1F (stereo not given)
- fractional inhibitory concentration index (FICI) (Candida albicans [1]): 0.59
- MIC50 (Candida albicans [2]): > 200 µg/mL
- MIC50 (Candida albicans [3]): 0.79 µg/mL
- MIC50 (Candida albicans [4]): 33.9 µg/mL
- fractional inhibitory concentration index (FICI) (Candida albicans [5]): 0.17

SMILES: O=C(CCn1ccc2ccc(Br)cc21)NCCNCC(O)COC(Cn1cncn1)c1ccc(F)cc1F (stereo not given)
- fractional inhibitory concentration index (FICI) (Candida albicans [1]): 0.71
- MIC50 (Candida albicans [2]): > 200 µg/mL
- MIC50 (Candida albicans [3]): 0.95 µg/mL
- MIC50 (Candida albicans [4]): 11.5 µg/mL
- fractional inhibitory concentration index (FICI) (Candida albicans [5]): 0.06

SMILES: O=C(CCN1CCc2ccc(Br)cc21)NCCNCC(O)COC(Cn1cncn1)c1ccc(F)cc1F (stereo not given)
- fractional inhibitory concentration index (FICI) (Candida albicans [1]): 0.44
- MIC50 (Candida albicans [2]): > 200 µg/mL
- MIC50 (Candida albicans [3]): 0.6 µg/mL
- MIC50 (Candida albicans [4]): 8.92 µg/mL
- fractional inhibitory concentration index (FICI) (Candida albicans [5]): 0.04

SMILES: COc1ccc2ccn(CCC(=O)NCCNCC(O)COC(Cn3cncn3)c3ccc(F)cc3F)c2c1 (stereo not given)
- fractional inhibitory concentration index (FICI) (Candida albicans [1]): 1.39
- MIC50 (Candida albicans [2]): > 200 µg/mL
- MIC50 (Candida albicans [3]): 1.87 µg/mL
- MIC50 (Candida albicans [4]): 52.5 µg/mL
- fractional inhibitory concentration index (FICI) (Candida albicans [5]): 0.26

SMILES: CC1Cc2ccccc2N1CCC(=O)NCCNCC(O)COC(Cn1cncn1)c1ccc(F)cc1F (stereo not given)
- fractional inhibitory concentration index (FICI) (Candida albicans [1]): 6.85
- MIC50 (Candida albicans [2]): > 200 µg/mL
- MIC50 (Candida albicans [3]): 9.22 µg/mL
- MIC50 (Candida albicans [4]): 67.7 µg/mL
- fractional inhibitory concentration index (FICI) (Candida albicans [5]): 0.34

SMILES: O=C(CCn1ccc2cc(Br)ccc21)NCCNCC(O)COC(Cn1cncn1)c1ccc(F)cc1F (stereo not given)
- fractional inhibitory concentration index (FICI) (Candida albicans [1]): 0.63
- MIC50 (Candida albicans [2]): > 200 µg/mL
- MIC50 (Candida albicans [3]): 0.85 µg/mL
- MIC50 (Candida albicans [4]): 12.9 µg/mL
- fractional inhibitory concentration index (FICI) (Candida albicans [5]): 0.06

SMILES: O=C(CCN1CCc2cc(Cl)ccc21)NCCNCC(O)COC(Cn1cncn1)c1ccc(F)cc1F (stereo not given)
- fractional inhibitory concentration index (FICI) (Candida albicans [1]): 1.31
- MIC50 (Candida albicans [2]): > 200 µg/mL
- MIC50 (Candida albicans [3]): 1.77 µg/mL
- MIC50 (Candida albicans [4]): 14 µg/mL
- fractional inhibitory concentration index (FICI) (Candida albicans [5]): 0.07

SMILES: O=C(CCn1ccc2ccccc21)NCCNCC(O)COC(Cn1cncn1)c1ccc(F)cc1F (stereo not given)
- fractional inhibitory concentration index (FICI) (Candida albicans [1]): 6.26
- MIC50 (Candida albicans [2]): > 200 µg/mL
- MIC50 (Candida albicans [3]): 8.42 µg/mL
- MIC50 (Candida albicans [4]): 50 µg/mL
- fractional inhibitory concentration index (FICI) (Candida albicans [5]): 0.25

SMILES: O=C(CCN1CCc2cc(Br)ccc21)NCCNCC(O)COC(Cn1cncn1)c1ccc(F)cc1F (stereo not given)
- Activity (Candida albicans [11]): inactive
- Activity (Candida albicans [12]): Dose-Dependent Effect
- Activity (Candida albicans [13]): Dose-Dependent Effect
- fractional inhibitory concentration index (FICI) (Candida albicans [1]): 0.85
- Activity (Cell membrane [14]): Dose-Dependent Effect
- MIC50 (Candida albicans [2]): > 200 µg/mL
- Activity (Cell membrane [15]): Dose-Dependent Effect
- MIC50 (Candida albicans [3]): 1.14 µg/mL
- Activity (Candida albicans [16]): Dose-Dependent Effect
- MIC50 (Candida albicans [4]): 2.82 µg/mL
- fractional inhibitory concentration index (FICI) (Candida albicans [5]): 0.01
- Activity (Candida albicans [17]): inactive
- Activity (Candida albicans [18]): Dose-Dependent Effect
- Activity (Candida albicans [19]): inactive
- Activity (Candida albicans [20]): Dose-Dependent Effect
- Activity (Candida albicans [21]): Dose-Dependent Effect
- Activity (Cell membrane [22]): inactive
- Activity (Candida albicans [23]): inactive
- Activity (Candida albicans [24]): inactive
